From patent US8592383B2, “Cycloalkyl-fused tetrahydroquinolines as CRTH2 receptor modulators” (Merck Sharp & Dohme Corp., priority 2011, dated 2013)

target: T1, hCRTH2 (Homo sapiens, UniProt Q9Y5Y4); test: biochemical; conditions: Ki, Radioligand Binding Assay A; 3.0 nM [3H]PGD2, HEK-hCRTH2 membranes
T1 sequence (Q9Y5Y4 1-395): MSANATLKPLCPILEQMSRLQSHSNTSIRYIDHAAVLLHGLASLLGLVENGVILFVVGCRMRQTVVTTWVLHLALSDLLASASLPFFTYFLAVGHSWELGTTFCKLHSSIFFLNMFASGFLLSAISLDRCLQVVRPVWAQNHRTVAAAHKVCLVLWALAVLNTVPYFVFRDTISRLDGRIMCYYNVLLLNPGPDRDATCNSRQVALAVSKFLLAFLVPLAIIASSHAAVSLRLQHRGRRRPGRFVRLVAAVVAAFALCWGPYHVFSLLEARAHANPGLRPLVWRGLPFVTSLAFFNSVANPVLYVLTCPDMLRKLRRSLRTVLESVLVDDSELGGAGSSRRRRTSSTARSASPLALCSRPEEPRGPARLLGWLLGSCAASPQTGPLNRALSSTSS

Row | Ki [nM] | SMILES
1 | 36 | O=C(O)CCC(=O)N(C1CC1)C1c2ccccc2N(C(=O)c2ccco2)C2CCCC21 (racemic) [17BL, 4-(cyclopropyl(cis,cis-4-(furan-2-carbonyl)-2,3,3a,4,9,9a-hexahydro-1H-cyclopenta[b]quinolin-9-yl)amino)-4-oxobutanoic acid]
2 | 605 | CN(C(=O)CCC(=O)O)C1c2ccccc2N(C(=O)OCc2ccccc2)C2CCCC12 (racemic) [17U, 4-(phenylmethyl) cis,cis-9-[(3-carboxy-1-oxopropyl)methylamino]-1,2,3,3a,9,9a-hexahydro-4H-cyclopenta[b]quinoline-4-carboxylate]
3 | 28.5 | CCOc1cnc(-c2ccc(C(=O)N3c4ccccc4C(N(C(=O)CCC(=O)O)C4CC4)C4CCCC43)cc2)nc1 (racemic) [18P, 4-[cyclopropyl[cis,cis-4-[4-(5-ethoxy-2-pyrimidinyl)benzoyl]-2,3,3a,4,9,9a-hexahydro-1H-cyclopenta[b]quinolin-9-yl]amino]-4-oxobutanoic acid]
4 | 9.8 | O=C(O)CCC(=O)N(C1CC1)C1c2ccccc2N(C(=O)c2ccc(-c3cncs3)cc2)C2CCCC21 (racemic) [18o, 4-[cyclopropyl[cis,cis-2,3,3a,4,9,9a-hexahydro-4-[4-(5-thiazolyl)benzoyl]-1H-cyclopenta[b]quinolin-9-yl]amino]-4-oxobutanoic acid]
5 | 2.54 | O=C(O)CCCN(C1CC1)[C@@H]1c2ccccc2N(C(=O)c2ccc(OC(F)(F)F)cc2)[C@@H]2CCC[C@@H]21 (racemic) [compound 44, 4-[Cyclopropyl[cis,cis-2,3,3a,4,9,9a-hexahydro-4-[4-(trifluoromethoxy)benzoyl]-1H-cyclopenta[b]quinolin-9-yl]amino]butanoic acid]
6 | 4.7 | O=C(O)CCC(=O)N(C1CC1)C1c2ccc(Cl)cc2N(C(=O)OCc2ccccc2)C2CCCC21 (single isomer, unassigned) [9A, 4-(phenylmethyl) cis,cis-[(3-carboxy-1-oxopropyl)cyclopropylamino]-6-chloro-1,2,3,3a,9,9a-hexahydro-4H-cyclopenta[b]quinoline-4-carboxylate]
7 | 10.9 | O=C(O)CCC(=O)N(C1CCC1)C1c2ccc(Cl)cc2N(C(=O)c2ccc(F)c(F)c2)C2CCCC21 (single isomer, unassigned) [17Co, 4-[[cis,cis-6-chloro-4-(3,4-difluorobenzoyl)-2,3,3a,4,9,9a-hexahydro-1H-cyclopenta[b]quinolin-9-yl]cyclobutylamino]-4-oxobutanoic acid]

Row | SMILES | Ki [nM]
8 | O=C(O)c1ccccc1C(=O)N(C1CC1)[C@@H]1c2ccccc2N(C(=O)c2ccc(OC(F)(F)F)cc2)[C@@H]2CCC[C@@H]21 (racemic) [17Ci, 2-[[cyclopropyl[cis,cis-2,3,3a,4,9,9a-hexahydro-4-[4-(trifluoromethoxy)benzoyl]-1H-cyclopenta[b]quinolin-9-yl]amino]carbonyl]benzoic acid] | 838

target: T1, hCRTH2; test: not given; design: expressed in transfected cells; host or cells: HEK (human embryonic kidney) cells expressing hCRTH2; conditions: Radioligand Binding Assay B; Table B, rated A-D
Protocol: The filters were then washed with 4 mL of the same buffer and residual radioligand bound to the filter was determined by liquid scintillation counting following equilibration in 25 μl Ultima Gold F™ (Unifilter) (Packard).

Row | Ki [nM] | SMILES
9 | 20.1 to 200 | CC(C)OC(=O)N1c2ccccc2C(N(C(=O)CCC(=O)O)C2CC2)C2CCCC21 (racemic) [compound 21, 4-(Cyclopropyl{cis,cis-4-[(1-methylethoxy)carbonyl]-2,3,3a,4,9,9a-hexahydro-1H-cyclopenta[b]quinolin-9-yl}amino)-4-oxobutanoic acid]
10 | 20.1 to 200 | O=C(O)CCC(=O)N(C1CC1)[C@@H]1c2ccccc2N(C(=O)N2CCc3ccccc32)[C@@H]2CCC[C@@H]21 (racemic) [compound 23, 4-{Cyclopropyl[cis,cis-4-(2,3-dihydro-1H-indol-1-ylcarbonyl)-2,3,3a,4,9,9a-hexahydro-1H-cyclopenta[b]quinolin-9-yl]amino}-4-oxobutanoic acid]
11 | 20.1 to 200 | O=C(O)CCC(=O)N(C1CC1)[C@@H]1c2ccccc2N(S(=O)(=O)c2ccccc2)[C@@H]2CCC[C@H]12 (racemic) [compound 24, 4-[Cyclopropyl[cis,cis-2,3,3a,4,9,9a-hexahydro-4-(phenylsulfonyl)-1H-cyclopenta[b]quinolin-9-yl]amino]-4-oxobutanoic acid]
12 | 20.1 to 200 | COC(=O)CCC(=O)N(C1CC1)C1c2ccccc2N(C(=O)c2ccc(OC(F)(F)F)cc2)C2CCC21 (racemic) [compound 26, Methyl 4-{cyclopropyl[cis,cis-3-{[4-(trifluoromethoxy)phenyl]carbonyl}-1,2,2a,3,8,8a-hexahydrocyclobuta[b]quinolin-8-yl]amino}-4-oxobutanoate]
13 | 201 to 7500 | O=C(c1ccccc1)N1c2ccccc2[C@@H](N(C(=O)OCCO)C2CC2)[C@H]2CCC[C@H]21 (racemic) [compound 29, 2-Hydroxyethyl cyclopropyl[cis,cis-4-(phenylcarbonyl)-2,3,3a,4,9,9a-hexahydro-1H-cyclopenta[b]quinolin-9-yl]carbamate]
14 | 5.1 to 20 | O=C(O)COC(=O)N(C1CC1)[C@@H]1c2ccccc2N(C(=O)c2ccc(OC(F)(F)F)cc2)[C@@H]2CCC[C@@H]21 (racemic) [compound 31, ({Cyclopropyl[cis,cis-4-{[4-(trifluoromethoxy)phenyl]carbonyl}-2,3,3a,4,9,9a-hexahydro-1H-cyclopenta[b]quinolin-9-yl]carbamoyl}oxy)acetic acid]
15 | 20.1 to 200 | O=C(O)CCC(=O)N(C1CC1)[C@@H]1c2ccccc2N(c2nnc(Cc3ccccc3)o2)[C@@H]2CCC[C@@H]21 (racemic) [compound 36, 4-{[cis-4-(5-Benzyl-1,3,4-oxadiazol-2-yl)-2,3,3a,4,9,9a-hexahydro-1H-cyclopenta[b]quinolin-9-yl](cyclopropyl)amino}-4-oxobutanoic acid]
16 | 5.1 to 20 | O=C(O)COC(=O)N(C1CC1)C1c2ccccc2N(c2nnc(-c3ccccc3)o2)C2CCCC21 (racemic) [compound 37, ({Cyclopropyl[cis,cis-4-(5-phenyl-1,3,4-oxadiazol-2-yl)-2,3,3a,4,9,9a-hexahydro-1H-cyclopenta[b]quinolin-9-yl]carbamoyl}oxy)acetic acid]

Row | SMILES | Ki [nM]
17 | O=C(O)CCC(=O)N(C1CC1)[C@@H]1c2ccccc2N(C(=O)OCc2ccccc2)[C@@H]2CC[C@@H]21 (racemic) [compound 25, 4-[{cis,cis-3-[(Benzyloxy)carbonyl]-1,2,2a,3,8,8a-hexahydrocyclobuta[b]quinolin-8-yl}(cyclopropyl)amino]-4-oxobutanoic acid] | 20.1 to 200
18 | O=C(O)CCC(=O)N(C1CC1)[C@@H]1c2ccccc2N(C(=O)OCc2ccccc2)[C@@H]2CCCC[C@@H]21 (racemic) [compound 28, 4-[{cis,cis-10-[(Benzyloxy)carbonyl]-1,2,3,4,4a,9,9a,10-octahydroacridin-9-yl}(cyclopropyl)amino]-4-oxobutanoic acid] | 20.1 to 200
19 | O=C(O)COC(=O)N(C1CC1)[C@@H]1c2ccccc2N(C(=O)c2ccccc2)[C@@H]2CCC[C@@H]21 (racemic) [compound 30, ({Cyclopropyl[cis,cis-4-(phenylcarbonyl)-2,3,3a,4,9,9a-hexahydro-1H-cyclopenta[b]quinolin-9-yl]carbamoyl}oxy)acetic acid] | 5.1 to 20
20 | CCN(c1nc(C(=O)O)cs1)[C@@H]1c2ccccc2N(C(=O)OCc2ccccc2)[C@@H]2CCC[C@H]12 (racemic) [compound 39, 2-[{cis,cis-4-[(Benzyloxy)carbonyl]-2,3,3a,4,9,9a-hexahydro-1H-cyclopenta[b]quinolin-9-yl}(ethyl)amino]-1,3-thiazole-4-carboxylic acid] | 20.1 to 200
